The target of one assay is T1, H6NA3 (Homo sapiens, UniProt P06731).
T1 construct: H6NA3, consisting of a hexahistidine leader and the N and A3 domains of CEA, was used
T1 sequence (P06731 35-144 limits assumed): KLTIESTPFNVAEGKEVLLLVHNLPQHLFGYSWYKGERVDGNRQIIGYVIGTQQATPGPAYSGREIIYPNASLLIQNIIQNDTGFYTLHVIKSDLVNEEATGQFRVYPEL
T1 sequence (P06731 501-588 limits assumed): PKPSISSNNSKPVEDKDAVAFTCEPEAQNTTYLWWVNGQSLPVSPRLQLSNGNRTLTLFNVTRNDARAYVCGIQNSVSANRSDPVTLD
The experiment in a line: Fluorescence anisotropy direct binding to H6NA3 / NA3. The note with it: from KD of Table 7 versus Table 3. The procedure: Each peptide was also provided with a C-terminal amide-functional linker useful for immobilizing peptides to various chromatographic substrates: -Ala18-Pro19-Gly20-Gly-Glu-Gly-Gly-Gly-Ser-Lys-CONH2 (SEQ ID NO:28). […] Aliquots of each peptide were fluorescently labeled using NHS-fluorescein reacted with the ε-amino side group of the C-terminal lysine.
Dissociation constants were determined using fluorescence anisotropy, through direct binding measurements and competition experiments. In direct binding assays, the concentration of the fluorescein-labeled peptide is held constant and the concentration of H6NA3 is varied. In the competition experiment, the concentration of the fluorescein-labeled peptide and the H6NA3 target are held constant and the concentration of a competitor (cT84.66, unlabeled) is varied. The change in anisotropy is fit to the appropriate equation via nonlinear regression to obtain the apparent Kd.
Aliquots of each peptide were fluorescently labeled using NHS-fluorescein reacted with the ε-amino side group of the C-terminal lysine.
Dissociation constants were determined using fluorescence anisotropy, through direct binding measurements (see Example 6).
Peptides including the binding domain of the CEA binder Isolates were synthesized by solid-phase synthesis. Each peptide was also provided with a C-terminal amide-functional linker useful for immobilizing peptides to various chromatographic substrates: -Ala18-Pro19-Gly20-Gly-Glu-Gly-Gly-Gly-Ser-Lys-CONH2 (SEQ ID NO:28). […] Aliquots of each peptide were fluorescently labeled using NHS-fluorescein reacted with the ε-amino side group of the C-terminal lysine.
Dissociation constants were determined using fluorescence anisotropy, through direct binding measurements to either NA-3 or CEA in PBS with 0.01% TWEEN 20. […] Isolate 304A-12-H12, previously isolated from Lib2 and assayed for binding, was analyzed in parallel as a control. […] KD standard error values are calculated from the nonlinear regression (SIGMAPLOT, SPSS Science, Chicago, Ill.).
(In general: In fluorescence polarisation assays a small probe gives low polarisation when free and higher when bound to something large.)

Assay [1] has as its target T2, CEA (Homo sapiens, UniProt P06731).
T2 construct: purchased
T2 sequence (P06731 35-676): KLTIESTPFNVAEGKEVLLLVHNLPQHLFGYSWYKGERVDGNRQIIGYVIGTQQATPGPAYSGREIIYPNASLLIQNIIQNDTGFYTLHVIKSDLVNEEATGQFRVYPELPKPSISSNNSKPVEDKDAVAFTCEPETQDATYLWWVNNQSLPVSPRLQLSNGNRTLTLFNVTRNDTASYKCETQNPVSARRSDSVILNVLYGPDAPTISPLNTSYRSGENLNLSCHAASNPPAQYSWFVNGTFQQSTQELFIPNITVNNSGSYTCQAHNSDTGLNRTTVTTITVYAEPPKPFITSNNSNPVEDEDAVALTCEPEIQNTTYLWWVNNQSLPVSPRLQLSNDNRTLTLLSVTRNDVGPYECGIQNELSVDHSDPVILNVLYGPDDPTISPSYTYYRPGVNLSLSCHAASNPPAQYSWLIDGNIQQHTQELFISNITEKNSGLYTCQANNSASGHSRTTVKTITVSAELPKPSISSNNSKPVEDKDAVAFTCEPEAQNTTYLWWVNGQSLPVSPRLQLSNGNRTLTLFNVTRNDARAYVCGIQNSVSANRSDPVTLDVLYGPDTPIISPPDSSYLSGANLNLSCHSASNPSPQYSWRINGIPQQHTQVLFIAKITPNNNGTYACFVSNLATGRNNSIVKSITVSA
The assay is described as follows: Fluorescence anisotropy direct binding to CEA. The following applies: compared with binding to NA3. The procedure:
Dissociation constants were determined using fluorescence anisotropy, through direct binding measurements to either NA-3 or CEA in PBS with 0.01% TWEEN 20. In direct binding assays, the concentration of the fluorescein-labeled peptide is held constant and the concentration of NA3 is varied. In the competition experiment, the concentration of the fluorescein-labeled peptide and the NA3 target are held constant and the concentration of competitor peptide (from Isolate 12-H12) is varied. The change in anisotropy is fit to the appropriate equation via nonlinear regression to obtain the apparent Kd. Isolate 304A-12-H12, previously isolated from Lib2 and assayed for binding, was analyzed in parallel as a control. Replicate analyses were run for certain binders and are reported to confirm accuracy and precision of measurements. KD standard error values are calculated from the nonlinear regression (SIGMAPLOT, SPSS Science, Chicago, Ill.).

A further assay concerns the target T3, NA3 (Homo sapiens, UniProt P06731).
T3 construct: H6NA3, consisting of a hexahistidine leader and the N and A3 domains of CEA, was used
T3 sequence (P06731 35-144 limits assumed): T1 sequence (P06731 35-144 limits assumed)
T3 sequence (P06731 501-588 limits assumed): T1 sequence (P06731 501-588 limits assumed)
The assay is described as follows: Phage ELISA with varying amounts of NA3 per well (FIGS. 2, 4, 5). The assay is classed as binding. The following applies: FIG. 2; 100, 50, 10, 5, 1, 0 ng per well. The procedure: The first bar for each sample represents wells each having 100 ng CEA. Successive bars represent 50 ng, 10 ng, 5 ng, 1 ng, and 0 ng CEA per well.
The first bar for each sample represents wells each having 30 ng NA3. Successive bars represent 10 ng, 3 ng, and 0 ng NA3 per well.
Several Isolates gave especially strong ELISA signals and these were tested further.
Several Isolates gave especially strong ELISA signals and these were tested further. […] Isolate 304A-12-H12 (designated DX306) was assayed in parallel as a basis for comparison.
Background: In an ELISA, binding on a coated surface is turned into a signal by an enzyme label.

Assay [2] deals with T2, CEA. The experiment in a line: Later evaluation of CEA binding, method not given.

With `CC(C)C[C@H](NC(=O)[C@@H](NC(=O)[C@H](CC(N)=O)NC(=O)[C@@H]1CSSC[C@H](NC(=O)[C@@H](NC(=O)[C@H](Cc2c[nH]c3ccccc23)NC(=O)[C@H](CC(=O)O)NC(=O)[C@@H](N)CO)C(C)C)C(=O)N[C@@H](CCC(=O)O)C(=O)N[C@@H](Cc2ccc(O)cc2)C(=O)N[C@@H](Cc2ccccc2)C(=O)N[C@@H](CCCCN)C(=O)N[C@@H](CC(N)=O)C(=O)N[C@@H](CCC(N)=O)C(=O)N[C@@H](Cc2c[nH]c3ccccc23)C(=O)N[C@@H](Cc2ccccc2)C(=O)N1)C(C)C)C(=O)N[C@@H](C)C(=O)N1CCC[C@H]1C(=O)NCC(=O)NCC(=O)N[C@@H](CCC(=O)O)C(=O)NCC(=O)NCC(=O)NCC(=O)N[C@@H](CO)C(=O)N[C@@H](CCCCNC(=O)c1ccc2c(c1)C(=O)OC21c2ccc(O)cc2Oc2cc(O)ccc21)C(N)=O` [Isolate 304A-12-H12, DWVCEYFKNQWFCNVL], the “increase in affinity compared to the Isolate G08 peptide” value at H6NA3 is 8 fold. Further, the “binding to CEA (in words)” value at CEA [1] was “effectively bound CEA, but not as strongly as they bound NA3”. The “phage ELISA binding profile to varying amounts of NA3” value on NA3 is “do not drop off so quickly”.

Turning to “-RYCEFFPWSLHCGRP (Isolate of TN10/9 library found not to bind CEA) [Isolate B10]”, the “binding to CEA with useful affinity” value in the assay with CEA [2] is given as “not to bind CEA with useful affinity”.

Consider “NWRCKLFPRYPYCSSW (Isolate of TN10/9 library found not to bind CEA) [Isolate G01]”, for which the “binding to CEA with useful affinity” value with CEA [2] is “not to bind CEA with useful affinity”.

Values taken from US6919424B2, “Binding peptides for carcinoembryonic antigen (CEA)” (Dyax Corp., priority 2000, dated 2005).
